The record followed here is patent US9580390B2, “Indazole compounds as kinase inhibitors and method of treating cancer with same” (University Health Network, priority 2011, dated 2017).

The target of one assay is T1, human TTK (Homo sapiens, UniProt P33981).
T1 construct: amino terminal GST fusion of full length human TTK; purchased Invitrogen
T1 sequence (P33981 1-857): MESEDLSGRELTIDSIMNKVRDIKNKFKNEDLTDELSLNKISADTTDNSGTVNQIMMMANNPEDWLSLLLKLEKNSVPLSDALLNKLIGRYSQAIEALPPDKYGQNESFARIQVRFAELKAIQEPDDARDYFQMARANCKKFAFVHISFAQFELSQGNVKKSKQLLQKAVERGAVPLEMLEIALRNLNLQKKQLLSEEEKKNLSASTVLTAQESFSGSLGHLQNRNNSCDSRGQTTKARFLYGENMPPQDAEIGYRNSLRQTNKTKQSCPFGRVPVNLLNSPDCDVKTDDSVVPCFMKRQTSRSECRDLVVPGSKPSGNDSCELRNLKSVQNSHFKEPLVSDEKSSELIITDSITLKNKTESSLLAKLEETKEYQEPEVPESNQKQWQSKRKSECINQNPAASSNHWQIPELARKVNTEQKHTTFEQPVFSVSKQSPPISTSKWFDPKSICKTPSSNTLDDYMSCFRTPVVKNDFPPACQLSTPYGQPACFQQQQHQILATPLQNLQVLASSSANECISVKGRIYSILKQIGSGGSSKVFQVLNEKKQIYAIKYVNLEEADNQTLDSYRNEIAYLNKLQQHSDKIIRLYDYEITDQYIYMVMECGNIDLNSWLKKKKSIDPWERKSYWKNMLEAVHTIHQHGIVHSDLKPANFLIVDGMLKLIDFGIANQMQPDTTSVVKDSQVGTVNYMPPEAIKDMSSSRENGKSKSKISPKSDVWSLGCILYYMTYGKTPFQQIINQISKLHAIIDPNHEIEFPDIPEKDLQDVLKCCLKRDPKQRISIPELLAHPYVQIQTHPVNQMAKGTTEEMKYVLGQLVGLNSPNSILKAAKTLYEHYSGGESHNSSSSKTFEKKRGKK
Put plainly: TTK inhibition assay (indirect ELISA). It counts as biochemical. The conditions noted are these: read-out: TTK IC50 Range. Background: In an ELISA, binding on a coated surface is turned into a signal by an enzyme label.

The test system of another assay is Breast cancer cells. Nature of the assay: Cancer cell line growth inhibition (SRB assay). It counts as cell-based. The conditions noted are these: Homo sapiens; MDA-MB-468; read-out: Cancer Cell Line GI50 Range MDA-MB-468. (In general: In SRB staining, fixed cells bind dye roughly in proportion to their protein.)
Assay [1] concerns colon cancer cells (HCT116). Nature of the assay: Cancer cell line growth inhibition (SRB assay). Particulars: Homo sapiens, HCT-116, read-out: Cancer Cell Line GI50 Range HCT116. The assay is classed as cell-based.
The subject of assay [2] is ovarian cancer cells (PA-1). Put plainly: Cancer cell line growth inhibition (SRB assay). The assay is classed as cell-based. The conditions noted are these: read-out: Cancer Cell Line GI50 Range PA-1.
Method: Breast cancer cells (MDA-MB-231), colon cancer cells (HCT116) and ovarian cancer cells (PA-1) were seeded (1000 to 4000 in 80 μl per well depending on the cell growth rate) into 96 well plates 24 hours before compound overlay. Compounds were prepared as 10 mM stock solutions in 100% DMSO which were diluted with DMEM (Dulbecco's Modified Eagle's Medium) cell growth Medium (Invitrogen, Burlington, ON, Canada) containing 10% FBS (Fetal Bovine Serum) to concentrations ranging from 50 nM to 250 μM. Aliquots (20 μl) from each concentration were overlaid to 80 μl of the pre-seeded cells in the 96 well plates to make final concentrations of 10 nM to 50 μM. The cells were cultured for 5 days before the Sulforhodamine B assay (SRB) was performed to determine the compound's cell growth inhibition activity.
Sulforhodamine B (purchased from Sigma, Oakville, ON, Canada) is a water-soluble dye that binds to the basic amino acids of the cellular proteins. Thus, colorimetric measurement of the bound dye provides an estimate of the total protein mass that is related to the cell number. the cells are fixed in situ by gently aspirating off the culture media and adding 50 μl ice cold 10% Trichloroacetic Acid (TCA) per well and incubate at 4° C. for 30-60 min. The plates are washed with H2O five times and allowed to air dry for 5 min. Addition of 50 μl 0.4% (w/v) SRB solution in 1% (v/v) acetic acid to each well and incubation for 30 min at RT completes the staining reaction. Following staining, plates are washed four times with 1% acetic acid to remove unbound dye and then allowed to air dry for 5 min. The stain is solubilized with 100 μl of 10 mM Tris pH 10.5 per well. Absorbance is read at 570 nm.
The percentage (%) of relative growth inhibition was calculated by comparing to DMSO treated only cells (100%). GI50's were determined for compounds with cytotoxic activity. The GI50 was calculated using GraphPad PRISM software (GraphPad Software, Inc., San Diego, Calif., USA).
The target in another assay is T2, human PLK4 (Homo sapiens, UniProt O00444).
T2 construct: amino terminal GST fusion of residues 1-391 of human PLK4; made in house; host or cells: E. coli
T2 sequence (O00444 1-391): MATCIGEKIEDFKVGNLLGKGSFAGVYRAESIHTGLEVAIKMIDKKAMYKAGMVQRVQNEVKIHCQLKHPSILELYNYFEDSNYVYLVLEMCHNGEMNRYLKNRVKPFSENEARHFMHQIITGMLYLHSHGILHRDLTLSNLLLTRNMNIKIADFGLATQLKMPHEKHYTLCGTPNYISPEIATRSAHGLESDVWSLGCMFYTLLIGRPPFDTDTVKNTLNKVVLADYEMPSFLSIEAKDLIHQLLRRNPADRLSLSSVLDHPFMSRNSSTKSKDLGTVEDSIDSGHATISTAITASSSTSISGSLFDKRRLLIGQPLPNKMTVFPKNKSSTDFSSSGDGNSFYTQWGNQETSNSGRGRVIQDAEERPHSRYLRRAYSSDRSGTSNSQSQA
Nature of the assay: PLK4 inhibition assay (indirect ELISA). It counts as biochemical. Particulars: 15 μM ATP. As to the method:
Active PLK4 was purified from an E. coli expression system as an amino terminal GST fusion of residues 1-391 of human PLK4. The protein was purified from clarified cell extracts after induction at 15° C. overnight using glutathione sepharose, gel permeation chromatography, and ion exchange (Resource Q). The resulting protein was dephosphorylated with lambda phosphatase (NEB cat# P0753), and resolved from the phosphatase using gluthione sepharose. The dephosphorylated GST-PLK4 was stored in aliquots at −80° C. until use.
PLK4 activity was measured using an indirect ELISA detection system. Dephosphorylated GST-PLK4 (4 nM) was incubated in the presence of 15 μM ATP (Sigma cat# A7699), 50 mM HEPES-[…] pH 7.4, 10 mM MgCl2, 0.01% Brij 35 (Sigma cat# 03-3170), in a 96 well microtitre plate pre-coated with MBP (Millipore cat#30-011). The reaction was allowed to proceed for 30 minutes, followed by 5 washes of the plate with Wash Buffer (50 mM TRIS-Cl pH 7.4 and 0.2% Tween 20), and incubation for 30 minutes with a 1:3000 dilution of primary antibody (Cell Signaling cat# 9381). The plate was washed 5 times with Wash Buffer, incubated for 30 minutes in the presence of secondary antibody coupled to horse radish peroxidase (BioRad cat# 1721019, 1:3000 concentration), washed an additional 5 times with Wash Buffer, and incubated in the presence of TMB substrate (Sigma cat# T0440). The colourimetric reaction was allowed to continue for 5 minutes, followed by addition of stop solution (0.5 N sulphuric acid), and quantified by detection at 450 nm with either a monochromatic or filter based plate reader (Molecular Devices M5 or Beckman DTX880, respectively).
Compound inhibition was determined at either a fixed concentration (10 μM) or at a variable inhibitor concentration (typically 50 μM to 0.1 μM in a 10 point dose response titration). Compounds were pre-incubated in the presence of enzyme for 15 minutes prior to addition of ATP and the activity remaining quantified using the above described activity assay. The % Inhibition of a compound was determined using the following formula: % Inhibition=100×(1−(experimental value−background value)/(high activity control−background value)). The IC50 value was determined using a non-linear 4 point logistic curve fit (XLfit4, IDBS) with the formula: (A+(B/(1+((x/C)^D)))), where A=background value, B=range, C=inflection point, D=curve fit parameter.

The mark [3] stands for this setting: HCT116 colon cancer cells, SRB assay.
The mark [4] stands for this setting: PA-1 ovarian cancer cells, SRB assay.

Read-outs that look alike come from different tables or passages of the source.

As for `CN1C2CCC1CC(Oc1ccc(-c3n[nH]c4ccc(C(=O)N[C@H](c5ccsc5)C5CCCC5)cc34)cc1)C2` (stereo partly drawn) [Example A248, N-((S)-cyclopentyl(thiophen-3-yl)methyl)-3-(4-(((1R,3R,5S)-8-methyl-8-azabicyclo[3.2.1]octan-3-yl)oxy)phenyl)-1H-indazole-5-carboxamide], the IC50 at human TTK was under 100 nM; on human PLK4 it was under 50 nM. Also, the GI50 lay in the range of 100 to 500 nM in the assay with Breast cancer cells; 100 to 500 nM in assay [1]; 100 to 500 nM in assay [2] (Homo sapiens, PA-1).
For `CC(C)(C)C[C@H](NC(=O)c1ccc2[nH]nc(-c3ccc(N4C5COCC4CC(O)C5)cc3)c2c1)c1ccccc1` (stereo partly drawn) [Example A426, N-((S)-3,3-dimethyl-1-phenylbutyl)-3-(4-((1R,5S,7R)-7-hydroxy-3-oxa-9-azabicyclo[3.3.1]nonan-9-yl)phenyl)-1H-indazole-5-carboxamide], the IC50 at human TTK is under 100 nM; at human PLK4 it was under 50 nM.
With `CN1C2COCC1CC(Oc1ccc(-c3n[nH]c4ccc(C(=O)NC(c5ccccc5)C5CC5)cc34)cc1)C2` [Example A387, N-(cyclopropyl(phenyl)methyl)-3-(4-(((1R,5S,7s)-9-methyl-3-oxa-9-azabicyclo[3.3.1]nonan-7-yl)oxy)phenyl)-1H-indazole-5-carboxamide], the IC50 at human TTK is under 100 nM; at human PLK4, under 50 nM. Further, the concentration for 50% growth inhibition (GI50) with Breast cancer cells is over 500 nM; in assay [1], under 100 nM; in assay [2] (Homo sapiens, PA-1), under 100 nM.
As for `CC(C)(C)CC(NC(=O)c1ccc2[nH]nc(-c3ccc(N4CCN(C5COC5)CC4)cc3)c2c1)c1ccccc1F` (centres unmarked) [Example A308, N-(1-(2-fluorophenyl)-3,3-dimethylbutyl)-3-(4-(4-(oxetan-3-yl)piperazin-1-yl)phenyl)-1H-indazole-5-carboxamide], the IC50 on human TTK was under 100 nM; at human PLK4, under 50 nM.
On to `CC(C)[C@H](NC(=O)c1ccc2[nH]nc(-c3ccc(OC4CN(C5COC5)C4)cc3)c2c1)c1ccccc1Cl` [Example A296, (S)-N-(1-(2-chlorophenyl)-2-methylpropyl)-3-(4-((1-(oxetan-3-yl)azetidin-3-yl)oxy)phenyl)-1H-indazole-5-carboxamide], for which the IC50 at human TTK was under 100 nM; on human PLK4, under 50 nM. The GI50 in assay [1] was under 100 nM; in assay [2] (Homo sapiens, PA-1), under 100 nM.
In the case of `CN1CCC2(CCc3cc(-c4n[nH]c5ccc(C(=O)N[C@H](c6ccccc6)C6CC6)cc45)ccc3O2)CC1` [Example A249, (S)-N-(cyclopropyl(phenyl)methyl)-3-(1′-methylspiro[chroman-2,4′-piperidin]-6-yl)-1H-indazole-5-carboxamide], the IC50 on human TTK was under 100 nM; on human PLK4 it was under 50 nM. Also, the GI50 fell in the range of 100 to 500 nM with Breast cancer cells; 100 to 500 nM in assay [1]; 100 to 500 nM in assay [2] (Homo sapiens, PA-1).
As for `CCC(CNC(=O)c1ccc2[nH]nc(-c3ccc(OC4CCN(C)CC4)cc3)c2c1)c1ccccc1` (centres unmarked) [Example A408, 3-(4-((1-methylpiperidin-4-yl)oxy)phenyl)-N-(2-phenylbutyl)-1H-indazole-5-carboxamide], the half-inhibitory concentration (IC50) at human TTK is under 100 nM; at human PLK4 it was under 50 nM.
As for `C[C@@H](O)CN1CCC(Oc2ccc(-c3n[nH]c4ccc(C(=O)N[C@H](c5ccsc5)C5CC5)cc34)cc2)CC1` [Example A220, N-((S)-cyclopropyl(thiophen-3-yl)methyl)-3-(4-((1-((R)-2-hydroxypropyl)piperidin-4-yl)oxy)phenyl)-1H-indazole-5-carboxamide], the IC50 at human TTK is under 100 nM; at human PLK4 it was under 50 nM. Also, the GI50 with Breast cancer cells is 100 to 500 nM; in assay [1], 100 to 500 nM; in assay [2] (Homo sapiens, PA-1) it was under 100 nM.
For `O=C(NC(c1ccsc1)C1CCC1)c1ccc2[nH]nc(-c3ccc(OC4CCN(C5COC5)CC4)cc3)c2c1` (centres unmarked) [Example A331, N-(cyclobutyl(thiophen-3-yl)methyl)-3-(4-((1-(oxetan-3-yl)piperidin-4-yl)oxy)phenyl)-1H-indazole-5-carboxamide], the IC50 was under 100 nM at human TTK and under 50 nM on human PLK4. The GI50 in assay [1] is under 100 nM; in assay [2] (Homo sapiens, PA-1), under 100 nM.
For `O=C(N[C@H](c1ccccc1)C1CC1)c1ccc2[nH]nc(-c3ccc(OC4CC5CCC(C4)N5C4COC4)cc3)c2c1` (stereo partly drawn) [Example A336, N-((S)-cyclopropyl(phenyl)methyl)-3-(4-(((1R,3R,5S)-8-(oxetan-3-yl)-8-azabicyclo[3.2.1]octan-3-yl)oxy)phenyl)-1H-indazole-5-carboxamide], the results for the IC50 on human TTK and on human PLK4 were under 100 nM and under 50 nM, respectively. The concentration for 50% growth inhibition (GI50) in assay [1] fell in the range of 100 to 500 nM; in assay [2] (Homo sapiens, PA-1) it was 100 to 500 nM.
For the molecule `O=C(Nc1ccc2[nH]nc(-c3ccc(N4CCC(CO)CC4)cc3)c2c1)C(c1ccsc1)N1CCCC1` (centres unmarked) [Example A95, N-(3-(4-(4-(hydroxymethyl)piperidin-1-yl)phenyl)-1H-indazol-5-yl)-2-(pyrrolidin-1-yl)-2-(thiophen-3-yl)acetamide], the GI50 in assay [1] (setting [3]) and in assay [2] (setting [4]) was under 100 nM in each case. Further, on human PLK4, the IC50 is under 50 nM.
`COc1ccccc1C(C(=O)Nc1ccc2[nH]nc(-c3ccc(OC4CCN(C)CC4)cc3)c2c1)C1CCCC1` (centres unmarked) [Example A156, 2-cyclopentyl-2-(2-methoxyphenyl)-N-(3-(4-((1-methylpiperidin-4-yl)oxy)phenyl)-1H-indazol-5-yl)acetamide]: the 50% growth inhibitory concentration (GI50) in assay [1] (setting [3]) is 100 to 500 nM; in assay [2] (setting [4]), over 500 nM. For the same molecule, the IC50 on human PLK4 was under 50 nM.
For `O=C(NC(c1ccsc1)C1CC1)c1ccc2[nH]nc(-c3ccc(OC4CCN(CCO)CC4)cc3)c2c1` (centres unmarked) [Example A117, N-(cyclopropyl(thiophen-3-yl)methyl)-3-(4-((1-(2-hydroxyethyl)piperidin-4-yl)oxy)phenyl)-1H-indazole-5-carboxamide] the same measures were under 100 nM, under 100 nM and under 50 nM.

The IC50 is the concentration needed to halve the response being measured. Broadly, the GI50 is the concentration at which growth is held to half of that of the control.
